Patent US6914122B2 (priority 2000, dated 2005)
*1 amine or outer side, *2 acyl side, *3 side chain or, on linkers, in order; H or OH if unused. Where a SMILES comes first, the peptide text is derived from it. Bridges are numbered along the chain shown (N, C = ends). [ ]: non-standard residue; d: D form. Azelaoyl = O=C(CCCCCCCC(=O)[*:2])[*:1]; Suberoyl = O=C(CCCCCCC(=O)[*:2])[*:1]; Glutaryl = O=C(CCCC(=O)[*:2])[*:1]; X1 = CCCC(N[*:1])C(=O)C(=O)[*:2]; Chg = N[C@H](C(=O)O)C1CCCCC1; Phg = N[C@H](C(=O)O)c1ccccc1; Suc = O=C(CCC(=O)[*:2])[*:1]

These compounds were tested against Recombinant heterodimeric HCV NS3/NS4A protease (strain 1a) (Hepatitis C virus genotype 1a, UniProt P27958) (assay: biochemical).
Set-up: species or system HCV (strain 1a)

Structure (SMILES)	Ki [µM]
CCCC(NC(=O)[C@@H]1CCCCNC(=O)CCCC(=O)NCC(=O)N[C@@H](C2CCCCC2)C(=O)N1)C(=O)C(=O)NCC(=O)N[C@H](C(N)=O)c1ccccc1 (stereo partly drawn) [Example 50] (G[Chg]K[X1]G[Phg]-NH2; linker N-3 via Glutaryl)	1.1 to 100
CCCC(NC(=O)[C@H]1Cc2cccc(c2)Oc2ccc(cc2)CCC(=O)N[C@@H](C2CCCCC2)C(=O)O1)C(=O)C(=O)NCC(=O)N[C@H](C(=O)O)c1ccccc1 (stereo partly drawn) [Example 38]	1.1 to 100
CCCC(NC(=O)C1Cc2cccc(c2)Oc2ccc(cc2)CCC(=O)NC(C2CCCCC2)C(=O)O1)C(=O)C(=O)NCC(=O)NC(C(=O)O)c1ccccc1 (stereo not drawn) [Example 34]	1.1 to 100
CCCC(NC(=O)[C@@H]1Cc2cccc(c2)OCCCCCNC(=O)N[C@@H](C2CCCCC2)C(=O)N1)C(=O)C(=O)NCC(=O)N[C@H](C(=O)OC(C)(C)C)c1ccccc1 (stereo partly drawn) [Example 19]	1.1 to 100
CCCC(NC(=O)[C@@H]1Cc2cccc(c2)OCCCCCNC(=O)N[C@@H](C2CCCCC2)C(=O)N1)C(=O)C(=O)NCC(=O)N[C@H](C(=O)O)c1ccccc1 (stereo partly drawn) [Example 20]	0.001 to 1
CCCC(NC(=O)[C@@H]1Cc2cccc(c2)OCCCCCCC(=O)N[C@@H](C2CCCCC2)C(=O)N1)C(=O)C(=O)NCC(=O)N[C@H](C(=O)OC(C)(C)C)c1ccccc1 (stereo partly drawn) [Example 11]	1.1 to 100
CCCC(NC(=O)[C@@H]1Cc2cccc(c2)OCCCCCCOC(=O)N[C@@H](C2CCCCC2)C(=O)N1)C(=O)C(=O)NCC(=O)N[C@H](C(=O)O)c1ccccc1 (stereo partly drawn) [Example 22]	0.001 to 1
CCCC(NC(=O)[C@@H]1Cc2cccc(c2)Oc2ccc(cc2)CC(NC(C)=O)C(=O)N[C@@H](C2CCCCC2)C(=O)N1)C(=O)C(=O)NCC(=O)O (stereo partly drawn) [Example 32]	1.1 to 100
CCCC(NC(=O)[C@@H]1Cc2cccc(c2)OCCCCCC(=O)N[C@@H](C2CCCCC2)C(=O)N1)C(=O)C(=O)NCC(=O)N[C@H](C(=O)OC(C)(C)C)c1ccccc1 (stereo partly drawn) [Example 13]	1.1 to 100
CCCC(NC(=O)[C@@H]1CCCCNC(=O)CCCCCCC(=O)N[C@@H](C2CCCCC2)C(=O)N1)C(=O)C(=O)NCC(=O)N[C@H](C(N)=O)c1ccccc1 (stereo partly drawn) [Example 41] ([Chg]K[X1]G[Phg]-NH2; linker N-2 via Suberoyl)	0.001 to 1
CCCC(NC(=O)[C@@H]1CCCCNC(=O)CCC(=O)N[C@@H](C2CCCCC2)C(=O)N1)C(=O)C(=O)NCC(=O)N[C@H](C(N)=O)c1ccccc1 (stereo partly drawn) [Example 51] ([Chg]K[X1]G[Phg]-NH2; linker N-2 via Suc)	1.1 to 100
CCCC(NC(=O)[C@@H]1CCCCNC(=O)CCCC(=O)N[C@H](CC(=O)O)C(=O)N[C@@H](C2CCCCC2)C(=O)N1)C(=O)C(=O)NCC(=O)N[C@H](C(N)=O)c1ccccc1 (stereo partly drawn) [Example 46] ([dD][Chg]K[X1]G[Phg]-NH2; linker N-3 via Glutaryl)	1.1 to 100
CCCC(NC(=O)[C@@H]1CCCCNC(=O)CCCC(=O)N[C@H](CCC(=O)O)C(=O)N[C@@H](C2CCCCC2)C(=O)N1)C(=O)C(=O)NCC(=O)N[C@H](C(N)=O)c1ccccc1 (stereo partly drawn) [Example 48] ([dE][Chg]K[X1]G[Phg]-NH2; linker N-3 via Glutaryl)	1.1 to 100
CCCC(NC(=O)[C@@H]1Cc2cccc(c2)Oc2ccc(cc2)CC(NC(C)=O)C(=O)N[C@@H](C2CCCCC2)C(=O)N1)C(=O)C(=O)NCC(=O)N[C@H](C(=O)O)c1ccccc1 (stereo partly drawn) [Example 30]	0.001 to 1
CCCC(NC(=O)C1Cc2cccc(c2)OCCCCCCC(=O)NC(C2CCCCC2)C(=O)O1)C(=O)C(=O)NCC(=O)N[C@H](C(=O)N(C)C)c1ccccc1 (stereo partly drawn) [Example 36]	1.1 to 100
CCCC(NC(=O)[C@@H]1CCCCNC(=O)Cc2ccc(cc2)CC(=O)N[C@@H](C2CCCCC2)C(=O)N1)C(=O)C(=O)NCC(=O)N[C@H](C(N)=O)c1ccccc1 (stereo partly drawn) [Example 44]	0.001 to 1
CCCC(NC(=O)C1Cc2cccc(c2)Oc2ccc(cc2)CCC(=O)NC(C2CCCCC2)C(=O)N1)C(=O)C(=O)NCC(=O)OC(C)(C)C (stereo not drawn) [Example 3]	1.1 to 100
CCCC(NC(=O)C1Cc2cccc(c2)Oc2ccc(cc2)CCC(=O)NC(C2CCCCC2)C(=O)O1)C(=O)C(=O)NCC(=O)NC(C(=O)OC(C)(C)C)c1ccccc1 (stereo not drawn) [Example 33]	1.1 to 100
CCCC(NC(=O)[C@@H]1CCCCNC(=O)Cc2cccc(c2)CC(=O)N[C@@H](C2CCCCC2)C(=O)N1)C(=O)C(=O)NCC(=O)N[C@H](C(N)=O)c1ccccc1 (stereo partly drawn) [Example 43]	0.001 to 1
CCCC(NC(=O)[C@@H]1CCCCNC(=O)CCC(=O)N[C@H](CCC(=O)O)C(=O)N[C@@H](C2CCCCC2)C(=O)N1)C(=O)C(=O)NCC(=O)N[C@H](C(N)=O)c1ccccc1 (stereo partly drawn) [Example 47] ([dE][Chg]K[X1]G[Phg]-NH2; linker N-3 via Suc)	1.1 to 100
CCCC(NC(=O)C1Cc2cccc(c2)Oc2ccc(cc2)CCC(=O)NCC(=O)N1)C(=O)C(=O)NCC(=O)NC(C(=O)O)c1ccccc1 (stereo not drawn) [Example 10]	1.1 to 100
CCCC(NC(=O)[C@@H]1CCCCNC(=O)CCCCCCCC(=O)N[C@@H](C2CCCCC2)C(=O)N1)C(=O)C(=O)NCC(=O)N[C@H](C(N)=O)c1ccccc1 (stereo partly drawn) [Example 42] ([Chg]K[X1]G[Phg]-NH2; linker N-2 via Azelaoyl)	1.1 to 100
CCCC(NC(=O)C1Cc2cccc(c2)Oc2ccc(cc2)CCCCC(=O)NC(C2CCCCC2)C(=O)N1)C(=O)C(=O)NCC(=O)NC(C(=O)O)c1ccccc1 (stereo not drawn) [Example 8]	0.001 to 1
CCCC(NC(=O)[C@@H]1CCCCNC(=O)CCC(=O)NCC(=O)N[C@@H](C2CCCCC2)C(=O)N1)C(=O)C(=O)NCC(=O)N[C@H](C(N)=O)c1ccccc1 (stereo partly drawn) [Example 49] (G[Chg]K[X1]G[Phg]-NH2; linker N-3 via Suc)	1.1 to 100
CCCC(NC(=O)C1Cc2cccc(c2)Oc2ccc(cc2)CCCC(=O)NC(C2CCCCC2)C(=O)N1)C(=O)C(=O)NCC(=O)NC(C(=O)O)c1ccccc1 (stereo not drawn) [Example 6]	0.001 to 1
CCCC(NC(=O)C1Cc2cccc(c2)Oc2ccc(cc2)CC(NC(C)=O)C(=O)NC(C2CCCCC2)C(=O)N1)C(=O)C(=O)NCC(=O)NC(C(=O)OC(C)(C)C)c1ccccc1 (stereo not drawn) [Example 29]	1.1 to 100
CCCC(NC(=O)[C@@H]1Cc2cccc(c2)C=CCCCCCC(=O)N[C@@H](C2CCCCC2)C(=O)N1)C(=O)C(=O)NCC(=O)N[C@H](C(=O)OC(C)(C)C)c1ccccc1 (stereo partly drawn) [Example 15]	1.1 to 100
CCCC(NC(=O)[C@@H]1Cc2cccc(c2)Oc2ccc(cc2)CCC(=O)N[C@@H](C2CCCCC2)C(=O)O1)C(=O)C(=O)NCC(=O)N[C@H](C(=O)N(C)C)c1ccccc1 (stereo partly drawn) [Example 35]	1.1 to 100

Each compound was assayed against T1, HCV serine protease (subtype 1b, 1bNS4A21-32GS-GS NS 3-81 I17K) in HeLa/Huh7 cells (Hepatitis C virus genotype 1b, UniProt P26663, I1043K) (assay: Cell bioassay: HCV serine protease cell-based trans-cleavage assay).
T1 construct: 1bNS4A21-32GS-GS NS 3-81 I17K; expressed in transfected cells; host or cells: HeLa/Huh7 cells
Set-up: species or system Hepatitis C virus (subtype 1b)

Structure (SMILES)	EC50 [µM]
CCCC(NC(=O)C1Cc2cccc(c2)OCCCCCCC(=O)NC(C2CCCCC2)C(=O)O1)C(=O)C(=O)NCC(=O)N[C@H](C(=O)N(C)C)c1ccccc1 (stereo partly drawn) [Example 36]	9
CCCC(NC(=O)[C@@H]1Cc2cccc(c2)Oc2ccc(cc2)CCC(=O)N[C@@H](C2CCCCC2)C(=O)O1)C(=O)C(=O)NCC(=O)N[C@H](C(=O)N(C)C)c1ccccc1 (stereo partly drawn) [Example 35]	20
